Reference: patent publication US20080119558A1, “Drug for Inhibiting Production of Matrix Metalloprotease-9” (Japan Science And Technology Agency, priority 2002, published 2008)

Assays:
[1] = system: MMP-9; assay: Detection of MMP-2 and MMP-9 by gelatin zymography in conditioned media of cultured human foreskin keratinocytes; format: cell-based; settings: HFKs; for concentration of LMB in the medium at which the production of MMP-9 is inhibited: 24 hours
Description: A foreskin of a neonate was treated at 4° C. for 16 hours by a disperse having a casein decomposition activity of 25.0 caseinolytic units/ml. Epidermal was peeled from dermis using a forceps, then, the epidermal was treated with 0.05% trypsin for 5 minutes. The separated human foreskin keratinocytes (HFKs) were allowed to incubate at 37° C. in a plate having a keratinocyte-SFM medium (manufactured by Invitrogen), and sub-cultured over three generations. Then, into four plates obtained by sub-culturing human foreskin keratinocytes (HFKs) over three generations, LMB was added so that the concentrations in the medium were 0 nM, 0.4 nM, 2 nM and 10 nM, respectively, further, allowed to incubate at 37° C. for 24 hours. Then, four conditioned media of the keratinocyte-SFM medium were collected from the four plates, and stored at −30° C. until use in the following detection of MMP-2 and MMP-9 by a gelatin zymography method.
Prior to detection of MMP-2 and MMP-9 by a gelatin zymography method, four conditioned media collected in <Culturing of human epidermal keratinocyte cell> were all allowed to incubate at 35° C. for 1 hour. Then, the above-mentioned conditioned media were dissolved in a solution of pH 7.4 containing 0.05 M Tris-HCl, 5 mM CaCl2, 1% SDS (sodium dodecyl-sulfate) and 5% glycerol, respectively, and the solutions were used as samples for a gelatin zymography method. MMP-2 and MMP-9 were separated from the samples by an SDS-PAGE method using 7.5% polyacrylamide gel containing 0.5% gelatin. After separation by an SDS-PAGE method, the separated gel was washed with a solution containing 2.5% Triton X-100 for 1 hour, to remove SDS. For allowing MMP-2 and MMP-9 separated in the separated gel to decompose gelatin in the separated gel, the separated gel was allowed to incubate at 35° C. for a given time in a buffer solution for reaction (standard conditions: 0.05 M Tris-HCl (pH 7.4)/0.15 M NaCl/5 MM CaCl2/0.02% NaN3). Staining of the separated gel was conducted using a staining solution containing 0.1% Amideblack B-10, and decolorization was conducted using a decolorization solution containing 10 vol % of acetic acid and 30 vol % of methanol.
(§1) Culturing of a human epidermal keratinocyte and detection of MMP-2 and MMP-9 by a gelatin zymography method were conducted by the same manner as in Example 1 except that LMB was added into four plates obtained by sub-culturing human foreskin keratinocytes (HFKS) over three generations, so that the concentrations in the medium were 0 nM, 0.4 nM, 2 nM and 10 nM, respectively, and a calcium chloride aqueous solution was added so that the four concentrations of Ca^+ in the medium were all 1.5 mM, instead of adding LMB into four plates obtained by sub-culturing human foreskin keratinocytes (HFKs) over three generations, so that the concentrations in the medium were 0 nM, 0.4 nM, 2 nM and 10 nM, respectively, in culturing of human epidermal keratinocyte.
as §1, with “(HFKs)” for “(HFKS)”, “TGF-β” for “a calcium chloride aqueous solution”, “TGF-β” for “Ca^+”, “1 ng/ml,” for “1.5 mM,”, “keratinocytes. […]” for “keratinocyte.”

[2] = system: mRNA of human MMP-9 gene; assay: Detection of mRNA of human MMP-9 gene and human GAPDH gene by RT-PCR in human foreskin keratinocytes; format: cell-based; settings: 10 nM LMB
Description: A foreskin of a neonate was treated at 4° C. for 16 hours by a disperse having a casein decomposition activity of 25.0 caseinolytic units/ml. Epidermal was peeled from dermis using a forceps, then, the epidermal was treated with 0.05% trypsin for 5 minutes. The separated human foreskin keratinocytes (HFKs) were allowed to incubate at 37° C. in a plate having a keratinocyte-SFM medium (manufactured by Invitrogen), and sub-cultured over three generations. Then, into two plates obtained by sub-culturing human foreskin keratinocytes (HFKS) over three generations, LMB was added so that the concentrations in the medium were 0 nM and 10 nM, respectively, further, allowed to incubate at 37° C. for 24 hours.
Extraction of all RNAs from cultured human foreskin keratinocytes (HFKs) was conducted according to a method of Wachi et al. (Wachi et al. (1995) FEBS Lett. 36B, 215-219), and the extracted all RNAs were stored at −80° C. in the form of solution having a concentration of 1 μg/ml. A RT-PCR method was conducted using TaKaRa RNA PCR kit (manufactured by TaKaRa). For amplifying 277 base pairs of cDNA for human MMP-9, a sense primer (SEQ ID No. 1) was used for the 5′ end situated at 116 to 136 base pairs, and an antisense primer (SEQ ID No. 2) was used for the 3′ end situated at 372 to 392 base pairs. For amplifying 478 base pairs of cDNA for human GAPDH, a sense primer (SEQ ID No. 3) was used for the 5′ end situated at 547 to 566 base pairs, and an antisense primer (SEQ ID No. 4) was used for the 3′ end situated at 1005 to 1024 base pairs. Reverse transcription of RNA was conducted by incubating at 42° C. for 1 hour. Incubation in PCR of cDNA obtained by reverse transcription was conducted according to the following temperature profile. Namely, for every one cycle, modification of cDNA was conducted at 94° C. for 2 minutes, annealing of a primer was conducted at 60° C. for 30 seconds, and synthesis of a DNA chain by a DNA polymerase was conducted at 72° C. for 1 minute. A solution obtained after 30 cycles was separated, and electrophoresis was conducted using an agarose gel containing ethidium bromide, and the resulted band was observed under ultraviolet ray.
Culturing of a human epidermal keratinocyte and detection of mRNA of a human MMP-9 gene and mRNA of a human GAPDH gene by a RT-PCR method were conducted by the same manner as in Example 6 except that LMB was added into two plates obtained by sub-culturing human foreskin keratinocytes (HFKs) over three generations, so that the concentrations in the medium were 0 nM and 10 nM, respectively, and a calcium chloride aqueous solution was added so that the two concentrations of Ca^+ in the medium were all 1.5 mM, instead of adding LMB into two plates obtained by sub-culturing human foreskin keratinocytes (HFKs) over three generations, so that the concentrations in the medium were 0 nM and 10 nM, respectively, in culturing of human epidermal keratinocytes. […]

[3] = system: MMP-9 promoter sequence; assay: Measurement of MMP-9 promoter transcription activity by luciferase assay in human foreskin keratinocytes; format: cell-based; settings: 10 nM LMB; for transcription activity of MMP-9: 24 hours; for Promoter activity suppressed to (fraction of no LMB addition): vector-1 containing KRE-M9 (−73 to +16)
Description: A foreskin of a neonate was treated at 4° C. for 16 hours by a disperse having a casein decomposition activity of 25.0 caseinolytic units/ml. Epidermal was peeled from dermis using a forceps, then, the epidermal was treated with 0.05% trypsin for 5 minutes. The separated human foreskin keratinocytes (HFKs) were allowed to incubate at 37° C. in a 24-well plate having a keratinocyte-SFM medium (manufactured by Life Technologies) containing 0.09 mM Ca^+, and sub-cultured over three generations.
A −73 to +16 base sequence containing KRE-M9 of an MMP-9 promoter sequence and a −56 to +16 base sequence containing no KRE-M9 were inserted into pGL3-basic vector (manufactured by Promega) which is a luciferase expression vector containing a luciferase gene according to a method of Kobayashi et al. (Kobayashi et al. (2001) EMBO Rep. 2, 604 to 608), to prepare vector-1 and vector-2.
Using the vector-1 and vector-2 and Fugene 6 (manufactured by Roche) which is a reagent for gene introduction, a vector-1 solution and a vector-2 solution each having a DNA concentration of 3 μg/1 ml were prepared, respectively. Then, the vector solution 1 was added to solutions in 12 wells and the vector solution 2 was added to solutions in the remaining 12 wells each at 37° C., of HFKs culture solutions in the 24-well plates obtained in <Culturing of human epidermal keratinocyte> and gene introduction was performed, further, 10 nM LMB was added to solutions in 6 wells to give a 6-well LMB added plate 1 and LMB was not added to solutions in the remaining 6 wells to give a 6-well LMB no-addition plate 1, of the 12 wells obtained by addition of the vector-1 solution, and 10 nM LMB was added to solutions in 6 wells to give a 6-well LMB added plate 2 and LMB was not added to solutions in the remaining 6 wells to give a 6-well LMB no-addition plate 2, of the 12 wells obtained by addition of the vector-2 solution, then, they were allowed to stand still for 3 hours. Gene introduction of a luciferase gene effected as described above induces the production of MMP-9 and the production of luciferase, and by measuring the light emitting intensity in a light emitting reaction by luciferase by a micro press counter, the production of MMP-9 can be monitored.
Measurement of the transcription activity was conducted by a luciferase assay. The activity of luciferase was measured by Luciferase assay system (manufactured by Promega). As a micro press counter, Microbeta (manufactured by Perkin-Elmer) was used. In this measurement, the total transcription activity after 12 hours was measured using 3 wells among 6 wells, further, the total transcription activity after 24 hours was measured using the remaining 3 wells, each using the 6-well LMB added plate 1, 6-well LMB no-addition plate 1, 6-well LMB added plate 2 and 6-well LMB no-addition plate 2. […] The standard deviation is shown by error bar. […]

[4] = system: skin of hairless mice (Hoes: HR-1); assay: Ultraviolet B irradiated hairless mouse skin, external application, histology (hematoxylin and eosin); format: in vivo
Description: Ten 8-weeks old female hairless mice (Hoes: HR-1) were previously bred for 1 week. Five mice (mouse A1, mouse B1, mouse C1, mouse D1, mouse E1) were irradiated at the back with ultraviolet B (UV) of 300 mJ (about 3 MED (minimal erythema dose)), and five mice (mouse A2, mouse B2, mouse C2, mouse D2, mouse E2) were not irradiated with ultraviolet ray. Immediately after irradiation with ultraviolet ray and 24 hours after irradiation with ultraviolet ray, leptomycin B was administered by externally applying a solution of a concentration of 10 μg/ml (20 μM) to mouse B1 and mouse B2, a solution of a concentration of 1 μg/ml (2 μM) to mouse C1 and mouse C2, a solution of a concentration of 100 ng/ml (200 nM) to mouse D1 and mouse D2 and a solution of a concentration of 10 ng/ml (20 nM) to mouse E1 and mouse E2, each in an amount of 0.1 ml by a brush, as a solution containing leptomycin B dissolved in 70% ethanol. To mouse A1 and mouse A2, about 0.1 ml of 70% ethanol was applied by a brush. Then, skins were collected from mouse A1 to mouse E1 irradiated with ultraviolet ray 48 hours after irradiation and mouse A2 to mouse E2 not irradiated with ultraviolet ray. The collected skins were fixed with formalin and embedded in paraffin, then, the slices were stained with hematoxylin and eosin. Slices of skins collected from mouse A1, mouse B1, mouse C1, mouse D1 and mouse E1 and stained and slices of skins collected from mouse A2, mouse B2, mouse C2, mouse D2 and mouse E2 and stained were observed by ECLIPSE E1000M optical microscope (manufactured by NIKON), and the results are shown in FIG. 5. In FIG. 5, A1 to E1 correspond to slices of skins collected from mouse A1 to mouse E1 and stained, respectively, and A2 to E2 correspond to slices of skins collected from mouse A2 to mouse E2 and stained, respectively, and the length of a bar indicates 100 μm.

[5] = system: P388 cell, Lewis Landa carcinoma cell, B16 melanoma cell, Erich carcinoma cell; settings: tumor cells transplanted to mouse; anti-tumor agent containing leptomycin B, parenteral or oral; cited from earlier work
[6] = UVB 300 mJ irradiated mice B1 to E1, external application 10 μg/ml to 10 ng/ml in 70% ethanol, 0.1 ml, at 0 and 24 hours, skin at 48 hours

CCC(=C/[C@H](C)C/C=C/C(C)=C/[C@@H](C)C(=O)[C@@H](C)[C@H](O)[C@@H](C)C/C(C)=C/C(=O)O)/C=C/[C@@H]1OC(=O)C=C[C@@H]1C [LMB, Leptomycin B]
specificity of inhibition of the production of MMP-9 as compared with MMP-2 ([1]; gelatin zymography, FIG. 1): inhibits the production of MMP-9 more specifically as compared with MMP-2 | concentration of LMB in the medium at which the production of MMP-9 is inhibited ([1]; stimulating differentiation by TGF-β 1 ng/ml, FIG. 1 (C)): ≥ 2 nM | concentration of LMB in the medium at which the production of MMP-9 is inhibited ([1]; stimulating differentiation by calcium at a high concentration (1.5 mM), FIG. 1 (B)): ≥ 2 nM | concentration of LMB in the medium at which the production of MMP-9 is inhibited ([1]; stimulating inflammation by IL-1α 10^−10 M, FIG. 1 (E)): ≥ 2 nM | concentration of LMB in the medium at which the production of MMP-9 is inhibited ([1]; stimulating inflammation by TNF-α 10 ng/ml, FIG. 1 (D)): ≥ 2 nM | concentration of LMB in the medium at which the production of MMP-9 is inhibited ([1]; under no stimulation, FIG. 1 (A)): ≥ 2 nM | production of MMP-9 (mRNA) as compared with GAPDH ([2]; stimulation with IL-1α 10^−10 M, Sample 9 and 10 in FIG. 2): inhibited | production of MMP-9 (mRNA) as compared with GAPDH ([2]; stimulation with TGF-β 1 ng/ml, Sample 5 and 6 in FIG. 2): inhibited | production of MMP-9 (mRNA) as compared with GAPDH ([2]; stimulation with TNF-α 10 ng/ml, Sample 7 and 8 in FIG. 2): inhibited | production of MMP-9 (mRNA) as compared with GAPDH ([2]; stimulation with calcium at a high concentration (1.5 mM), Sample 3 and 4 in FIG. 2): inhibited | production of MMP-9 (mRNA) as compared with GAPDH ([2]; under no stimulation, 24 hours, Sample 1 and 2 in FIG. 2): inhibited | transcription activity of MMP-9 ([3]; base sequence 1 (−80 to +16, KRE-M9 and TRE), FIG. 4 (A)): suppressed | transcription activity of MMP-9 ([3]; base sequence 2 (4-base substitution of KRE-M9 in base sequence 1), FIG. 4 (A)): suppressed | transcription activity of MMP-9 ([3]; base sequence 6 (base substitution of both KRE-M9 and TRE), FIG. 4 (B)): suppressed | Promoter activity suppressed to (fraction of no LMB addition) ([3]; 12 hours after gene introduction): about one-fifth | Promoter activity suppressed to (fraction of no LMB addition) ([3]; 24 hours after gene introduction): about one-seventh | inflammatory cell infiltration in dermis and subcutaneous tissue [4, 6]: suppressed | keratinization of epidermal [4, 6]: normal keratinization is manifested in epidermal in a concentration-dependent manner | change of skin not irradiated with ultraviolet ray ([4]; mice B2 to E2 not irradiated, external application 10 μg/ml to 10 ng/ml in 70% ethanol): significant change was not found | anti-tumor action [5]: strong anti-tumor action
